Tests used:
Test in all cases: relative viability (nuclei count vs DMSO), 5 days (fraction); higher = more cells survive
H3255 = system: H3255
In short: (§1)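 Relative viability is defined as nuclei in treated wells over nuclei in vehicle wells. Duplicate plates were run and medians reported. Lung cancer cell lines in 1536-well plates were dosed by pin tool one day after seeding, with one drug or with a fixed anchor-drug dose plus five library-drug doses (not always all listed) in √10 steps, and nuclei were counted after 5 days.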

NCI-H1734 = system: NCI-H1734
In short: as §1

NCI-H3122 = system: NCI-H3122
In short: as §1

NCI-H2085 = system: NCI-H2085
In short: as §1

NCI-H2023 = system: NCI-H2023
In short: as §1

NCI-H2170 = system: NCI-H2170
In short: as §1

NCI-H520 = system: NCI-H520
In short: as §1

NCI-H2347 = system: NCI-H2347
In short: as §1

LOU-NH91 = system: LOU-NH91
In short: as §1

NCI-H1993 = system: NCI-H1993
In short: as §1

EPLC-272H = system: EPLC-272H
In short: as §1

NCI-H2405 = system: NCI-H2405
In short: as §1

RERF-LC-KJ = system: RERF-LC-KJ
In short: as §1

HCC-44 = system: HCC-44
In short: as §1

PC-14 = system: PC-14
In short: as §1

NCI-H1650 = system: NCI-H1650
In short: as §1

COR-L23 = system: COR-L23
In short: as §1

NCI-H647 = system: NCI-H647
In short: as §1

201T = system: 201T
In short: as §1

NCI-H1563 = system: NCI-H1563
In short: as §1

NCI-H441 = system: NCI-H441
In short: as §1

Structure (SMILES): C=C1C(=O)O[C@@H](CCCCCCCC)[C@@H]1C(=O)O [C-75] + C[C@@H](Oc1cc(-c2cnn(C3CCNCC3)c2)cnc1N)c1c(Cl)ccc(F)c1Cl [Crizotinib] (partner 1 µM)
- relative viability (H3255; first compound 0.08 µM): 0.909
- relative viability (H3255; first compound 0.253 µM): 0.932
- relative viability (H3255; first compound 0.8 µM): 0.875
- relative viability (H3255; first compound 2.53 µM): 0.841
- relative viability (H3255; first compound 8 µM): 0.843
- relative viability (NCI-H1734; first compound 0.08 µM): 0.692
- relative viability (NCI-H1734; first compound 0.253 µM): 0.624
- relative viability (NCI-H1734; first compound 0.8 µM): 0.618
- relative viability (NCI-H1734; first compound 2.53 µM): 0.557
- relative viability (NCI-H1734; first compound 8 µM): 0.69
- relative viability (NCI-H3122; first compound 0.08 µM): 0.26
- relative viability (NCI-H3122; first compound 0.253 µM): 0.254
- relative viability (NCI-H3122; first compound 0.8 µM): 0.3
- relative viability (NCI-H3122; first compound 8 µM): 0.269
- relative viability (NCI-H2085; first compound 0.08 µM): 0.739
- relative viability (NCI-H2085; first compound 0.253 µM): 0.803
- relative viability (NCI-H2085; first compound 0.8 µM): 0.878
- relative viability (NCI-H2085; first compound 2.53 µM): 0.656
- relative viability (NCI-H2085; first compound 8 µM): 0.878
- relative viability (NCI-H2023; first compound 0.08 µM): 0.654
- relative viability (NCI-H2023; first compound 0.253 µM): 0.767
- relative viability (NCI-H2023; first compound 0.8 µM): 0.698
- relative viability (NCI-H2023; first compound 2.53 µM): 0.444
- relative viability (NCI-H2023; first compound 8 µM): 0.626
- relative viability (NCI-H2170; first compound 0.08 µM): 1.25
- relative viability (NCI-H2170; first compound 0.253 µM): 1.28
- relative viability (NCI-H2170; first compound 0.8 µM): 1.23
- relative viability (NCI-H2170; first compound 2.53 µM): 1.07
- relative viability (NCI-H2170; first compound 8 µM): 1.24
- relative viability (NCI-H520; first compound 0.08 µM): 0.607
- relative viability (NCI-H520; first compound 0.253 µM): 0.841
- relative viability (NCI-H520; first compound 0.8 µM): 0.673
- relative viability (NCI-H520; first compound 2.53 µM): 0.706
- relative viability (NCI-H520; first compound 8 µM): 0.651
- relative viability (NCI-H2347; first compound 0.08 µM): 0.735
- relative viability (NCI-H2347; first compound 0.253 µM): 0.752
- relative viability (NCI-H2347; first compound 0.8 µM): 0.63
- relative viability (NCI-H2347; first compound 2.53 µM): 0.711
- relative viability (NCI-H2347; first compound 8 µM): 0.648
- relative viability (LOU-NH91; first compound 0.08 µM): 0.743
- relative viability (LOU-NH91; first compound 0.253 µM): 0.696
- relative viability (LOU-NH91; first compound 0.8 µM): 0.726
- relative viability (LOU-NH91; first compound 2.53 µM): 0.682
- relative viability (LOU-NH91; first compound 8 µM): 0.742
- relative viability (NCI-H1993; first compound 0.08 µM): 0.862
- relative viability (NCI-H1993; first compound 0.253 µM): 0.991
- relative viability (NCI-H1993; first compound 0.8 µM): 0.891
- relative viability (NCI-H1993; first compound 2.53 µM): 0.701
- relative viability (NCI-H1993; first compound 8 µM): 0.986
- relative viability (EPLC-272H; first compound 0.08 µM): 0.86
- relative viability (EPLC-272H; first compound 0.253 µM): 0.994
- relative viability (EPLC-272H; first compound 0.8 µM): 0.824
- relative viability (EPLC-272H; first compound 2.53 µM): 0.672
- relative viability (EPLC-272H; first compound 8 µM): 0.658
- relative viability (NCI-H2405; first compound 0.08 µM): 0.825
- relative viability (NCI-H2405; first compound 0.253 µM): 0.683
- relative viability (NCI-H2405; first compound 0.8 µM): 0.796
- relative viability (NCI-H2405; first compound 2.53 µM): 0.785
- relative viability (NCI-H2405; first compound 8 µM): 0.868
- relative viability (RERF-LC-KJ; first compound 0.08 µM): 0.881
- relative viability (RERF-LC-KJ; first compound 0.253 µM): 0.846
- relative viability (RERF-LC-KJ; first compound 0.8 µM): 0.815
- relative viability (RERF-LC-KJ; first compound 2.53 µM): 0.704
- relative viability (RERF-LC-KJ; first compound 8 µM): 0.86
- relative viability (HCC-44; first compound 0.08 µM): 0.787
- relative viability (HCC-44; first compound 0.253 µM): 0.815
- relative viability (HCC-44; first compound 0.8 µM): 0.795
- relative viability (HCC-44; first compound 2.53 µM): 0.659
- relative viability (HCC-44; first compound 8 µM): 0.719
- relative viability (PC-14; first compound 0.08 µM): 0.836
- relative viability (PC-14; first compound 0.253 µM): 0.905
- relative viability (PC-14; first compound 0.8 µM): 0.893
- relative viability (PC-14; first compound 2.53 µM): 0.741
- relative viability (PC-14; first compound 8 µM): 0.998
- relative viability (NCI-H1650; first compound 0.08 µM): 0.961
- relative viability (NCI-H1650; first compound 0.253 µM): 1.1
- relative viability (NCI-H1650; first compound 0.8 µM): 0.972
- relative viability (NCI-H1650; first compound 2.53 µM): 1.12
- relative viability (NCI-H1650; first compound 8 µM): 1.21
- relative viability (COR-L23; first compound 0.08 µM): 0.669
- relative viability (COR-L23; first compound 0.253 µM): 0.613
- relative viability (COR-L23; first compound 0.8 µM): 0.57
- relative viability (COR-L23; first compound 2.53 µM): 0.703
- relative viability (COR-L23; first compound 8 µM): 0.642
- relative viability (NCI-H647; first compound 0.08 µM): 1.06
- relative viability (NCI-H647; first compound 0.253 µM): 1.05
- relative viability (NCI-H647; first compound 2.53 µM): 0.842
- relative viability (NCI-H647; first compound 8 µM): 0.603
- relative viability (201T; first compound 0.08 µM): 1.05
- relative viability (201T; first compound 0.253 µM): 1.05
- relative viability (201T; first compound 0.8 µM): 1.01
- relative viability (201T; first compound 2.53 µM): 0.966
- relative viability (201T; first compound 8 µM): 1.05
- relative viability (NCI-H1563; first compound 0.08 µM): 0.801
- relative viability (NCI-H1563; first compound 0.253 µM): 0.909
- relative viability (NCI-H1563; first compound 0.8 µM): 0.865
- relative viability (NCI-H1563; first compound 2.53 µM): 0.826
- relative viability (NCI-H1563; first compound 8 µM): 0.931
- relative viability (NCI-H441; first compound 0.08 µM): 0.857
- relative viability (NCI-H441; first compound 0.253 µM): 0.762
- relative viability (NCI-H441; first compound 0.8 µM): 0.556
- relative viability (NCI-H441; first compound 2.53 µM): 0.46
- relative viability (NCI-H441; first compound 8 µM): 0.585
